Assay results: patent publication US5792635A, “Method of inhibiting the sodium/proton exchanger NHE3 and method of inhibiting growth by administering squalamine” (priority 1995, dated 1998)
“Also recorded” adds a separate entry of the source.

Columns and labels:
[1] = system: Xenopus tadpoles; conditions: in vivo
[2] = system: NHE; assay: Assay for direct inhibition of NHE; assay type: cell-based; conditions: relative to squalamine
Excerpt: Moreover, other aminosterols have shown anti-angiogenic activity. Compounds were subjected to a various assays, including the chick embryo capillary regression assay, the tadpole assay, the assay for inhibition of endothelial cord formation, and the assay for direct inhibition of NHE, as described above, to determine their utilities. As evident from the above data, correlation among the results from the chick, tadpole and in vitro inhibition of endothelial cell cord formation assays is excellent.
Through the application of these assays, compound 319 emerged as an attractive alternative to squalamine. […] Further properties of compound 319 are discussed below.

[3] = system: vitelline capillaries of 3- to 5-day chick embryo; assay: Chick embryo vitelline capillary regression assay; assay type: in vivo; conditions: for vitelline capillary regression, potency in words: chick embryo capillary bed
Method: Using the chick embryo vitelline capillaries assay, compounds were tested for their ability to induce capillary regression. Each compound was applied in 0.1 ml of 15% Ficol 400 and PBS onto the embryo, and vascular regression was assessed after 60 minutes.
The 3-day chick embryo consists of an embryonic disc from which numerous vessels emerge and return, forming a "figure 8"-shaped structure--the embryo in the center with vascular loops extending outward over both poles. […] Following a lag period of around 15 minutes, the constriction of continuity between capillary and secondary vessels, generally on the "venous" side, was observed. Continued pulsatile blood flow progressed, resulting in a "swelling" of the blind tube, followed by a pinching off of the remaining connection and formation of an enclosed vascular sac resembling a "blood island." This process progressed until only the largest vessels remained intact.

[4] = system: Xenopus tadpoles; assay: Tadpole assay; conditions: for observed response in tadpole: stage 59-60 Xenopus
[5] = Effect on fasting blood glucose in mice; assay type: in vivo, mouse (CD-1); conditions: intravenous; 1436 in D5W, 1437 in water
Method: To study the effect of steroid administrator or the NHE responsible for secretion of insulin, several of the aminosterols from shark liver were administered to fasting mice. Male CD-1 mice were assigned to one of four treatment groups. Whole blood glucose was tested using glucometer (Lifescan Glucometer II and One Touch test strips). Statistical analysis was via one-way analysis of variance (ANOVA) followed by subsequent Bonferonni's t-test.

[6] = system: Human ovarian carcinoma SKOV3; assay: Cancer cells inhibited in vitro; assay type: cell-based
Method: (§1) As set forth in Table 7 below, all malignant tumors evaluated in tissue culture, endothelial cells and vascular smooth muscle cells were sensitive to inhibition. Thus, compound 1436 has application in the control of growth factor dependent proliferation of many types of tissue.
Using the assay described above, the anticancer effects of compound 1437 against several cancer lines was assessed.

[7] = system: human coronary artery smooth muscle; assay: Proliferation of human coronary artery smooth muscle in vitro; assay type: cell-based; conditions: FIG. 15
Excerpt: Aminosterols of the invention may also have utility in inhibiting the growth factor mediated proliferation of smooth muscle within the artery. Following coronary angioplasty, reocclusion commonly occurs, secondary to reparative proliferation of the vascular smooth muscle within the wall of the surgically manipulated blood vessel. This process generally takes place over the course of 7-10 days. To evaluate whether an agent could prevent the growth factor mediated proliferation of smooth muscle within the artery, compound 1436 was evaluated in vitro for its effect on the proliferation of human coronary artery smooth muscle. Results for compound 1436 are shown in FIG. 13, and those for squalamine are shown in FIG. 14, with FIG. 15 being a composite logarithmic plot.

[8] = system: human umbilical venous endothelial cells; assay: Non-transformed cells inhibited in vitro; assay type: cell-based; conditions: 10 μg/ml
Excerpt: as §1

[9] = system: Human microvascular endothelial cells; assay: Non-transformed cells inhibited in vitro; assay type: cell-based; conditions: 10 μg/ml
Excerpt: as §1

[10] = system: Human coronary artery smooth muscle cells; assay: Non-transformed cells inhibited in vitro; assay type: cell-based; conditions: 10 μg/ml
Excerpt: as §1

[11] = system: bovine pulmonary endothelial cells; assay: Non-transformed cells inhibited in vitro; assay type: cell-based; conditions: 10 μg/ml
Excerpt: as §1

[12] = system: Human colon carcinoma SW948; assay: Cancer cells inhibited in vitro; assay type: cell-based; conditions: 10 μg/ml
Excerpt: as §1

[13] = system: Murine B16 melanoma; assay: Cancer cells inhibited in vitro; assay type: cell-based; conditions: 10 μg/ml
Excerpt: as §1

[14] = system: Human colon carcinoma HT29; assay: Cancer cells inhibited in vitro; assay type: cell-based; conditions: 10 μg/ml
Excerpt: as §1

[15] = system: Murine L1210 leukemia; assay: Cancer cells inhibited in vitro; assay type: cell-based; conditions: 10 μg/ml
Excerpt: as §1

[16] = system: Human melanoma WM 1617; assay: Cancer cells inhibited in vitro; assay type: cell-based; conditions: 10 μg/ml
Excerpt: as §1

[17] = system: Lewis lung carcinoma; assay: Cancer cells inhibited in vitro; assay type: cell-based; conditions: 10 μg/ml
Excerpt: as §1

[18] = Effect on growth and weight gain of growing mice; assay type: in vivo, mouse (C57B)
Method: Animals were dosed QTD (i.p.) starting on Day 1. […] Animals receiving 5 mg/kg QTD experienced about a 50% reduction in growth, compared to untreated controls, while animals receiving 1 mg/kg QTD were affected by about 10%. […] They appeared very much like hypophysectamized animals might appear.

[19] = system: B16 melanoma; assay: Synergistic inhibition of tumor growth, B16 melanoma in mice; assay type: in vivo, mouse; conditions: squalamine 15 mg/kg/day; compound 1436 tolerable schedule
Method: Based on the idea that tumor growth involves both the clonal expansion of a malignant cell along with the development of a supporting vascular supply, a combination of compound 1436 with squalamine was tested to determine whether it would achieve a synergistic effect on solid tumor growth. This concept was evaluated in the B16 melanoma model.
Animals were implanted with B16 melanoma followed by treatment with compound 1436 or 1256 administered in a combined schedule or separately. […] Thus, a combination of these two compounds achieves a therapeutic benefit in tumors dependent on neovascularization that may prevent metastatic spread.

[20] = system: human T-cells; assay: Inhibition of PHA-stimulated human lymphocytes; assay type: cell-based; conditions: Homo sapiens, T-cell; 10 μg/ml; read-out: inhibition of blast transformation
Excerpt: Results are tabulated below.

[21] = Effect on arterial resistance in the rat after i.v. administration; assay type: in vivo
Method: A 200-g rat was catheterized in the right carotid artery, and the compound was introduced over a ten-second period to a total dosage of 5 mg/kg. Within 30 seconds, the mean arterial pressure had fallen from about 100 mm Hg to about 70 mm Hg, with a marked reduction in pulse pressure from about 40 mm to about 10 mm. […] If cardiac output was basically unaffected, reduction in blood pressure would have resulted principally from a reduction in system resistance.
At that time, 40 μg of noradrenaline was introduced.

[22] = system: L1210 lymphoblastic leukemia cells; assay: Mouse model of leukemia (L1210), survival and hematological profile; conditions: highest dose (10 mg/kg every 3 days i.p.); FIG. 11
Excerpt: C57B mice were inoculated with L1210 lymphoblastic leukemia cells at an inoculum that causes leukemia in 100% of animals.

[23] = system: NHE1β; conditions: nucleated erythrocytes; cited from earlier work
[24] = system: LLC; assay: LLC MTT assay (Table II); assay type: cell-based; conditions: Lewis lung carcinoma, read-out: Minimum Effective Concentration, LLC MTT
[25] = system: NHE5; assay: NHE isoform selectivity inferred from tadpole and chick embryo assays
[26] = system: human melanoma; assay: Effect on growth of human melanoma, time course (FIG. 17); assay type: cell-based

For `C[C@H](CCC(=O)O)[C@H]1CC[C@H]2[C@@H]3CC[C@H]4C[C@@H](NCCCNCCCCN)CC[C@]4(C)[C@H]3CC[C@]12C` [Compound 319], the CNS effects [1] was “no CNS effects”, the “potency as an NHE inhibitor” value [2] was “superior to squalamine” and the “activity in vitelline capillary regression assay” value ([3]; Table 5) was “especially active”. For the same compound, the “observed response in tadpole” value ([4]; 10 μg/ml) was “common vascular occlusive effect”.
With `CC(C)C(CO)(CC[C@@H](C)[C@H]1CC[C@H]2[C@@H]3[C@H](O)C[C@H]4C[C@@H](NCCCNCCCCN)CC[C@]4(C)[C@H]3CC[C@]12C)OS(=O)(=O)O` (single isomer, unassigned) [Compound 1437] the hyperglycemic response [5] was “caused hyperglycemia in mice”, the anticancer activity ([6]; SKOV3) was “anticancer activity” and the “observed response in tadpole” value ([4]; 10 μg/ml) was “Epithelium covering the embryonic portions of the animal, such as the tail and antennae, began to slough off in sheets; also recorded: Animal was otherwise active, with little tissue breakdown noted; also recorded: the larval skin was observed to shed off in a sheet”.
In the case of `CC(C)[C@@H](CC[C@@H](C)[C@H]1CC[C@H]2[C@@H]3[C@H](O)C[C@H]4C[C@@H](NCCCNCCCCNCCCN)CC[C@]4(C)[C@H]3CC[C@]12C)OS(=O)(=O)O` [Compound 1436], the “suppression of growth of human coronary artery smooth muscle” value [7] was “suppress in vitro the growth of human coronary artery smooth muscle”, the hyperglycemic response [5] was “caused hyperglycemia in mice” and the inhibited in vitro ([6]; 10 μg/ml) was “INHIBITED”. The inhibited in vitro [8] was “INHIBITED”, the inhibited in vitro [9] was “INHIBITED” and the inhibited in vitro [10] was “INHIBITED”. The inhibited in vitro [11] was “INHIBITED”, the inhibited in vitro [12] was “INHIBITED” and the inhibited in vitro [13] was “INHIBITED”. For the same compound, the inhibited in vitro [14] was “INHIBITED”, the inhibited in vitro [15] was “INHIBITED” and the inhibited in vitro [16] was “INHIBITED”. The inhibited in vitro [17] was “INHIBITED”, the “growth inhibition of mice” value ([18]; 10 mg/kg QTD i.p., after 6 doses, about 1 month) was “almost completely inhibited” and the apparent health ([18]; C57B mice, 1-10 mg/kg QTD i.p.) was “all were active, normally proportioned, not-cachectic, and in excellent apparent clinical health”. The “suppression of linear growth and weight gain” value ([18]; normal growing mice, i.p.) was “suppresses both linear growth and weight gain in growing mice in a dose-dependent fashion”, the “effect of single agent versus combination” value [19] was “Neither administration of squalamine at 15 mg/kg/day nor compound 1436 alone in a tolerable schedule could achieve this effect” and the inhibition at 10 µg/mL [20] was over 75%. For the same compound, the “vitelline capillary regression, potency in words” value [3] was “about the same potency as squalamine”, the reversibility by noradrenaline ([21]; 40 μg noradrenaline at 30 minutes) was “readily reversible by standard pharmacological practice” and the “duration of blood pressure effect followed without significant change” value ([21]; 5 mg/kg i.v.) was 30 min. For the same compound, the “death / lethality time” value ([4]; 10 μg/ml) was “about 2 hours”, the “observed response in tadpole” value ([4]; 10 μg/ml) was “common vascular occlusive effect; also recorded: Gradual reduction in overall activity. Heart beat remained strong, suggesting nervous system depression; also recorded: Melanocytes over head and tail began to swell, first exhibiting visibly distinct nuclei, followed by rupture into fragments; also recorded: dramatic disruption of melanocytes over its head, trunk, and tail, along with depression of its nervous system; also recorded: No effects are observed on epithelial cell integrity, vascular flow, erythrocyte volume, tissue integrity, muscle fiber striation, or GI tract activity” and the “survival in L1210 leukemia mice” value [22] was “significant prolongation of life”.
In the case of `N=C(N)NC(=O)c1nc(Cl)c(N)nc1N` [Amiloride], the “inhibition of NHE1β” value [23] is listed as “inhibited by high concentrations of amiloride”.
In the case of `CC(C)CCC[C@@H](C)[C@H]1CC[C@H]2[C@@H]3CC[C@H]4C[C@@H](NCCCNCCCCNCCCN)CC[C@]4(C)[C@H]3CC[C@]12C` [Compound 353], the minimal effective concentration [24] was 1.9 µg/mL, the “vitelline capillary regression, potency in words” value [3] was “no effect on the chick embryo capillary bed” and the “NHE5 versus NHE3 selectivity” value [25] was “inhibits NHE5 to a greater extent than NHE3”. The “functional similarity in tadpole assay” value ([4]; Xenopus tadpole assay) was “effects like those produced by compound 1436”, the “effect on melanoma growth, time dependence” value ([26]; FIG. 17A, less effect within first 12 hours) was “most pronounced over 48 hours” and the “mode of cell death” value ([26]; cells exposed to compound 353) was “apoptotic cell death has been induced”.
